Laboratory results: patent publication US6515159B2, “S,S-ethylenediamine-N,N′-disuccinic acid iron alkali salt and a process for production thereof” (Mitsubishi Rayon Co., Ltd., priority 1997, dated 2003)

What was measured:
[1] = storage stability of 40% aqueous solution (dissolution state after storage); format: physicochemical; conditions: 40% aqueous solution stored at 50° C. for 1 week, then diluted to 1%
Experimental: Each of the powders obtained in Examples 1, 10 and 13 and Comparative Examples 1 and 3 was dissolved to obtain a 40% aqueous solution. The solution was stored at 50° C. for 1 week and then diluted to 1% and the dissolution state of the resulting diluted solution was observed.

Row | Compound | dissolution state of the resulting diluted solution [1] | pH of aqueous solution
1 | O=C([O-])C[C@H](NCCN[C@@H](CC(=O)[O-])C(=O)[O-])C(=O)[O-].[Fe+3].[Na+] [Example 1, S,S-ethylenediamine-N,N′-disuccinic acid iron sodium salt] | no insoluble material was found | 
2 | O=C(O)C[C@H](NCCN[C@@H](CC(=O)O)C(=O)O)C(=O)O [S,S-ethylenediamine-N,N′-disuccinic acid] |  | ~2
